Measurements: paper PMC4387200 (Toxicology and applied pharmacology, 2015)
Like-named read-outs stand apart in the source and are kept apart here.

How the values were obtained:
Human PXR [1] = target: T1, Human PXR (Homo sapiens, UniProt O75469); assay: in vitro
T1 sequence (O75469 107-434): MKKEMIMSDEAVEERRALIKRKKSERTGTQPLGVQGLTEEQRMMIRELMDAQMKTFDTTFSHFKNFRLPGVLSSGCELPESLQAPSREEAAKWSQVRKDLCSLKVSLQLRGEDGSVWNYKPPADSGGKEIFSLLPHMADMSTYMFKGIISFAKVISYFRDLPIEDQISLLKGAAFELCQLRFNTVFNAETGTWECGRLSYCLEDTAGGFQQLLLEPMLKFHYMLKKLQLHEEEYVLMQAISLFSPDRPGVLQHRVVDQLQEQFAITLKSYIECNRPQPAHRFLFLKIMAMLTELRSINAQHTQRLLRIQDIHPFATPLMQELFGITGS

polar bear PXR [2] = assay: in vitro
Human PXR [3] = target: T1, Human PXR; conditions: maximum response as percentage of the maximum response to rifampicin
Polar bear PXR [4] = conditions: for Polar bear PXR Relative activation (%): maximum response as percentage of the maximum response to rifampicin; for Relative max induction (polar bear vs human): ratio of maximum induction via pbPXR to hPXR
Human PXR [5] = target: T1, Human PXR
Polar bear PXR [6] = system: Polar bear PXR

| Compound | Human PXR Relative activation (%) (Human PXR [3]) | Polar bear PXR Relative activation (%) (Polar bear PXR [4]) | Relative max induction (polar bear vs human) (Polar bear PXR [4]) | further results |
| --- | --- | --- | --- | --- |
| Clc1cccc(Cl)c1Cl [1,2,3-trichlorobenzene (1,2,3-TCB), 1,2,3-trichlorobenzene] | 9% | 9% | 0.9 | fold induction (Human PXR [1]): 0.9 ± 0.1; fold induction (polar bear PXR [2]): 0.9 ± 0.3 |
| Clc1ccc(Cl)c(Cl)c1 [1,2,4-trichlorobenzene (1,2,4-TCB), 1,2,4-trichlorobenzene] | 10% | 9% | 0.9 | fold induction (Human PXR [1]): 1 ± 0.1; fold induction (polar bear PXR [2]): 0.9 ± 0.3 |
| Clc1ccc(C(c2ccc(Cl)cc2)C(Cl)(Cl)Cl)cc1 [4,4′-DDT, Dichlorodiphenyltrichloroethane] | 53% | 42% | 0.8 | Human PXR RECh20 (Human PXR [5]): 9.3 µM; Polar bear PXR RECh20 (Polar bear PXR [6]): 11 µM |
| Brc1ccc(Oc2ccc(Br)cc2Br)cc1 [BDE 28] | 31% | 9% | 0.3 | Human PXR RECh20 (Human PXR [5]): 11 µM |
| Brc1ccc(Oc2ccc(Br)cc2Br)c(Br)c1 [BDE 47] | 59% | 16% | 0.3 | Human PXR RECh20 (Human PXR [5]): 5 µM |
| Brc1ccc(Oc2cc(Br)c(Br)cc2Br)c(Br)c1 [BDE 99] | 52% | 16% | 0.3 | Human PXR RECh20 (Human PXR [5]): 4.8 µM |
| Brc1ccc(Oc2c(Br)cc(Br)cc2Br)c(Br)c1 [BDE 100] | 39% | 14% | 0.4 | Human PXR RECh20 (Human PXR [5]; human): 6.6 µM; fold induction (Human PXR [1]): 3.8 ± 0.3; fold induction (polar bear PXR [2]): 1.3 ± 0.2 |
| Brc1cc(Br)c(Oc2cc(Br)c(Br)cc2Br)cc1Br [BDE 153] | 45% | 17% | 0.4 | Human PXR RECh20 (Human PXR [5]; human): 3.9 µM; fold induction (Human PXR [1]): 4.4 ± 0.2; fold induction (polar bear PXR [2]): 1.7 ± 0.1 |
| Brc1c(Br)c(Br)c(Oc2c(Br)c(Br)c(Br)c(Br)c2Br)c(Br)c1Br [BDE 209] | 26% | 19% | 0.7 | Human PXR RECh20 (Human PXR [5]): 16 µM |
| Clc1ccccc1C(c1ccccc1)(c1ccccc1)n1ccnc1 [Clotrimazole, reference compound] | – | – | – | Polar bear PXR RECh20 (Polar bear PXR [6]; polar bear): 0.63 µM |
| C[Si]1(C)O[Si](C)(C)O[Si](C)(C)O[Si](C)(C)O[Si](C)(C)O1 [Decamethylcyclopentasiloxane (D5), Decamethylcyclopentasiloxane] | 22% | 16% | 0.7 | Human PXR RECh20 (Human PXR [5]; human): 35 µM; fold induction (Human PXR [1]): 2.2 ± 0.2; fold induction (polar bear PXR [2]): 1.6 ± 0.2 |
| C[Si]1(C)O[Si](C)(C)O[Si](C)(C)O[Si](C)(C)O1 [Octamethylcyclotetrasiloxane (D4), Octamethylcyclotetrasiloxane] | 44% | 11% | 0.3 | fold induction (Human PXR [1]): 4.3 ± 0.3; fold induction (polar bear PXR [2]): 1.1 ± 0.4 |
| Clc1ccc(-c2ccc(Cl)cc2Cl)cc1 [PCB 28] | 19% | 12% | 0.6 | – |
| Clc1ccc(-c2ccc(Cl)cc2Cl)c(Cl)c1 [PCB 47] | 27% | 14% | 0.5 | – |
| Clc1ccc(Cl)c(-c2cc(Cl)ccc2Cl)c1 [PCB 52] | 11% | 10% | 0.9 | – |
| Clc1ccc(-c2ccc(Cl)c(Cl)c2Cl)cc1 [PCB 60] | 10% | 8% | 0.7 | – |

| Compound | Human PXR Relative activation (%) (Human PXR [3]) | Polar bear PXR Relative activation (%) (Polar bear PXR [4]) | Relative max induction (polar bear vs human) (Polar bear PXR [4]) | further results |
| --- | --- | --- | --- | --- |
| Clc1cc(Cl)c(-c2cccc(Cl)c2Cl)cc1Cl [PCB 97] | 25% | 28% | 1.1 | – |
| Clc1ccc(Cl)c(-c2cc(Cl)c(Cl)cc2Cl)c1 [PCB 101] | 34% | 19% | 0.6 | – |
| Clc1ccc(-c2cc(Cl)c(Cl)cc2Cl)cc1Cl [PCB 118] | 25% | 14% | 0.6 | Human PXR RECh20 (Human PXR [5]): 34 µM |
| Clc1cc(Cl)c(-c2ccc(Cl)c(Cl)c2Cl)cc1Cl [PCB 138] | 12% | 11% | 0.9 | – |
| Clc1ccc(Cl)c(-c2c(Cl)c(Cl)cc(Cl)c2Cl)c1 [PCB 151] | 72% | 15% | 0.2 | – |
| Clc1ccc(-c2cc(Cl)c(Cl)c(Cl)c2Cl)c(Cl)c1Cl [PCB 170] | 24% | 15% | 0.6 | – |
| Clc1cc(Cl)c(-c2c(Cl)cc(Cl)c(Cl)c2Cl)cc1Cl [PCB 183] | 28% | 31% | 1.1 | – |
| Clc1cc(Cl)c(-c2c(Cl)cc(Cl)c(Cl)c2Cl)c(Cl)c1 [PCB 184] | 33% | 19% | 0.6 | – |
| Clc1ccc(-c2c(Cl)c(Cl)c(Cl)c(Cl)c2Cl)cc1Cl [PCB 190] | 46% | 18% | 0.4 | – |
| O=C(O)C(F)(F)C(F)(F)C(F)(F)C(F)(F)C(F)(F)C(F)(F)C(F)(F)C(F)(F)F [Perfluorononanoic acid (PFNA), Perfluorononanoic acid] | 11% | 10% | 0.9 | – |
| CO[C@H]1/C=C/O[C@@]2(C)Oc3c(C)c(O)c4c(O)c(c(/C=N/N5CCN(C)CC5)c(O)c4c3C2=O)NC(=O)/C(C)=C\C=C\[C@H](C)[C@H](O)[C@@H](C)[C@@H](O)[C@@H](C)[C@H](OC(C)=O)[C@@H]1C [Rifampicin, reference compound] | – | – | – | Human PXR RECh20 (Human PXR [5]; human): 0.46 µM; Polar bear PXR RECh20 (Polar bear PXR [6]; polar bear): 1.1 µM |
| CC(C)(c1cc(Br)c(O)c(Br)c1)c1cc(Br)c(O)c(Br)c1 [Tetrabromobisphenol A (TBBPA), Tetrabromobisphenol A] | – | – | – | Human PXR RECh20 (Human PXR [5]): 29 µM; Human PXR Relative activation (%) (Human PXR [5]): 32%; Polar bear PXR RECh20 (Polar bear PXR [6]): 35 µM; Polar bear PXR Relative activation (%) (Polar bear PXR [6]): 39%; Relative max induction (polar bear vs human) (Polar bear PXR [6]): 1.2 |
| C=CC1(C)OC(=O)N(c2cc(Cl)cc(Cl)c2)C1=O (stereo not drawn) [Vinclozolin] | 38% | 11% | 0.3 | Human PXR RECh20 (Human PXR [5]; human): 44 µM; fold induction (Human PXR [1]): 3.7 ± 0.2; fold induction (polar bear PXR [2]): 1.1 ± 0.2 |
| O=c1cc(-c2ccccc2)oc2ccc3ccccc3c12 [β-naphtoflavone (BNF), β-naphtoflavone, reference compound] | 28% | 21% | 0.8 | Human PXR RECh20 (Human PXR [5]): 0.069 µM; Polar bear PXR RECh20 (Polar bear PXR [6]): 0.69 µM |
| Hexabromocyclododecane [HBCD technical mixture] | – | – | – | Polar bear PXR RECh20 (Polar bear PXR [6]): 1.7 µM |
